# Source: patent EP2948433B1, “ATGLISTATIN AS LIPASE INHIBITOR” (Technische Universität Graz, priority 2013, dated 2014)
# Legend:
# [1] = tested on: TG hydrolase activity in lysates obtained from ATGL-ko animals; assay: TG hydrolase activity in WAT lysates of ATGL-ko mice; format: biochemical; details: at concentrations ≥ 20 µM
# Description: (§1) • Figure 1. Structure of compounds 1 to 3 (reference) and compound 4 (atglistatin) and effect on ATGL activity. For determination of lipase activity, lysates of E. coli overexpressing recombinant strep-tagged ATGL and CGI-58 were incubated with a substrate containing radiolabeled [9,10-3H(N)]-triolein. Subsequently, FA were extracted and quantified by liquid scintillation counting. Lysates of cells expressing empty vector were set as blank. Inhibitors were solubilized in DMSO and added at the indicated concentrations. DMSO alone was used as negative control. (A) Structure and IC50 values of compounds 1-4. (B) Dose-dependent inhibition of ATGL in the presence of compound 3 and 4. […] (C) Lineweaver-Burk plots for kinetic analysis of ATGL inhibition. Experiments were performed at varying concentrations of substrate (0.05 - 3 mM) in presence and absence of compound 4 (Atglistatin). […] Lipase activity of ATGL, HSL, lipoprotein lipase, and pancreatic lipase was determined using triolein as substrate. MGL activity was detected in the presence of rac-(1,3)-monooleoylglycerol as substrate. […] The release of FA (A) and glycerol (B) in the media was determined using commercial kits. […] At the indicated timepoints blood was taken retroorbitally and plasma parameters were measured using commercial kits. […] 8 h after gavage blood was taken retroorbitally and plasma parameters were measured using commercial kits. […]
# murine HSL = biological target: T1, murine HSL (Mus musculus, UniProt P54310); assay: HSL activity, overexpressed in COS-7 lysates, triolein substrate; format: biochemical; details: Fig. 2C
# T1 construct: His-tag (vector pcDNA4/HisMax); made in house; host or cells: COS-7 cells, transient transfection, 1,000 x g lysate
# T1 sequence (P54310 1-759): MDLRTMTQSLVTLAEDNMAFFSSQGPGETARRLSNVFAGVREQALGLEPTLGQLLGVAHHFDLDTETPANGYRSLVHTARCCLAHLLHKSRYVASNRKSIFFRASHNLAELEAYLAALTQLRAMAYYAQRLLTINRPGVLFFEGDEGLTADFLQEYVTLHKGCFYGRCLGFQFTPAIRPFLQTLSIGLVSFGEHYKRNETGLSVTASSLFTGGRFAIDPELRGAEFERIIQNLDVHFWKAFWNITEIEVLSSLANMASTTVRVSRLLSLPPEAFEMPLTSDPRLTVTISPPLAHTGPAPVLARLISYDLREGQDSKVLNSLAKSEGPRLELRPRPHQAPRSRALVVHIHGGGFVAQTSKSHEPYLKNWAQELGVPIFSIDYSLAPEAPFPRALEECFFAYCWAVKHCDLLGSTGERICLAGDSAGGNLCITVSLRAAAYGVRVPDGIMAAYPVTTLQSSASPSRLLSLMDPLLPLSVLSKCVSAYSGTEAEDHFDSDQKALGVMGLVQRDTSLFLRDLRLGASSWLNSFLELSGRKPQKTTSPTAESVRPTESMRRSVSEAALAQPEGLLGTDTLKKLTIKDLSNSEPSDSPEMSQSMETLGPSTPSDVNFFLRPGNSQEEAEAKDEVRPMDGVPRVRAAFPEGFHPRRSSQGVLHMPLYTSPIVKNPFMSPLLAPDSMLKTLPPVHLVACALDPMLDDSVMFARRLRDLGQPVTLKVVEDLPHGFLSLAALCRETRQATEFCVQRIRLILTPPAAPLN
# Description: as §1
smiles,measurement,setting,value
"CN(C)C(=O)Nc1cccc(-c2ccc(N(C)C)cc2)c1 [Atglistatin, atglistatin]",effect on the residual TG hydrolase activity in ATGL-ko lysates,[1],moderate but significant effect
same,effect on HSL activity,murine HSL,only minor effects
